What was measured:
[1] = tested on: Guinea pigs; assay: Cystometry test on guinea pigs (spinal cord cut), effective bladder capacity; format: in vivo; settings: guinea pig
From the text: (2) Cystometry Test on Guinea Pigs
The method used was according to the method proposed by J S. Peterson et al. (Peterson J S. et al., J. Pharmacol. Methods 21(1989): 231), to which minor modifications were made.
Guinea pigs were anesthetized with halothane and the tenth thoracic spinal cord was cut in each animal. Subsequently, both ureters were ligated and were cut on the kidney-side. Polyethylene catheters were inserted into the bladder to provide an injection pathway for physiological saline and a pathway for the measurement of intravesical pressure. Each animal was restricted in a Ballman cage and was left for more than 2 hours. Subsequently, room-temperature saline was injected through the bladder catheter into the bladder at a rate of 6 mL/hr to conduct a cystometry test. Once the effective bladder capacity was stabilized, a test compound was intravenously administered into the jugular vein. The effective bladder capacity is defined as the volume of saline injected from one urination to the next. The effect of each test compound was determined as the increase in the average bladder volume, which was determined based on the average bladder volume measured 30 minutes prior to the administration of the test compound and the average bladder volume measured every 30 minutes after the administration of the test compound.

[2] = target: T1, NK1 receptor (Cavia porcellus, UniProt P30547); assay: Test for NK1 receptor antagonist: substance P concentration-response in isolated guinea pig ileum, Schild analysis; settings: substance P-induced contraction, 10 min pretreatment, method of Schild
T1 construct: from tissue; host or cells: isolated guinea pig ileum
Experimental: (1) Test for NK1 Receptor Antagonist
The method used was according to the method proposed by S. Dion et al.(Dion et al., Life Sciences 41(1987): 2269), to which minor modifications were made.
Guinea pigs were stunned by a blow on the head and were exsanguinated from the carotid artery and ilea were isolated. The ileum was mounted in an organ bath containing Tyrode's solution which was maintained at 32° C. and gased with 95% O2 and 5% CO2. The ileum was subjected to a resting tension of 1-gram and allowed to equilibrate for 20 minutes before the experiment was started. As a control, a concentration-response curve for substance P in the absence of any of test compounds was used. The NK1 receptor antagonist activity of each test compound was determined by a concentration-response curve obtained by pretreating at least three concentrations of the test compound for 10 minutes and subsequently applying substance P in a cumulative manner. The Kb values were determined according to the method of Schild and the results are shown in Table 1 (Schild Brit. J. Pharmacol. 14(1959): 48).
The composition of the Tyrode's solution was as follows: NaCl=136.9, KCl=2.7, CaCl2·2H2O=2.5, MgCl2·6H2O=1.0, NaH2PO4·2H2O=0.4, NaHCO3=11.9, glucose=11.1 (mmol/L)

T1 sequence (P30547 whole entry): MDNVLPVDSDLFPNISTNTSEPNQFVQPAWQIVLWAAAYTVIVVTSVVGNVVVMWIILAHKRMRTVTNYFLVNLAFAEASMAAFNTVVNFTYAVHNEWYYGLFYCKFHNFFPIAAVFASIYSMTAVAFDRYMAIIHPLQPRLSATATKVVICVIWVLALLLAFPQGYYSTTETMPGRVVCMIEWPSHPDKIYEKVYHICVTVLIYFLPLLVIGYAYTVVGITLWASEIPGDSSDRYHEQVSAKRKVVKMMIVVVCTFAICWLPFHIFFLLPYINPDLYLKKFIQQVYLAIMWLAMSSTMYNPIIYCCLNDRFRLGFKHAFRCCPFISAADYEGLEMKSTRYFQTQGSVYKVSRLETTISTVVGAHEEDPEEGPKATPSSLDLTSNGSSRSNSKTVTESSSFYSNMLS

Row | SMILES | Kb [2] | Increase in bladder capacity (%) ([1]; dose 0.3 mg/kg i.v.) | Increase in bladder capacity (%) ([1]; dose 1 mg/kg i.v.) | Increase in bladder capacity (%) ([1]; dose 3 mg/kg i.v.)
1 | CC(=O)N1CCN(c2nc(-c3ccccc3C)c3c(n2)N(C)CCCN(Cc2cc(C(F)(F)F)cc(C(F)(F)F)c2)C3=O)CC1 [Compound of Example 20] | 0.324 nM |  |  | 
2 | Cc1ccccc1-c1nc(N2CCOCC2)nc2c1C(=O)N(Cc1cc(C(F)(F)F)cc(C(F)(F)F)c1)CCCN2C [Compound of Example 21, 6-[3,5-bis(trifluoromethyl)benzyl]-5,6,7,8,9,10-hexahydro-10-methyl-4-(2-methylphenyl)-2-(morpholine-4-yl)-5-oxopyrimido(4,5-b][1,5]diazocine] | 0.42 nM |  |  | 
3 | COc1ccccc1-c1nc(N2CCS(=O)(=O)CC2)nc2c1C(=O)N(Cc1cc(C(F)(F)F)cc(C(F)(F)F)c1)CCCN2 [Compound of Example 28, 6-[3,5-bis(trifluoromethyl)benzyl]-2-(1,1-dioxothiomorpholine-4-yl)-5,6,7,8,9,10-hexahydro-4-(2-methoxyphenyl)-5-oxopyrimido[4,5-b][1,5]diazocine] | 0.169 nM |  |  | 
4 | Cc1ccc(-c2c3n(c(=O)c4ncccc24)CC[C@@H](C)CN(Cc2cc(C(F)(F)F)cc(C(F)(F)F)c2)C3=O)cc1 [TAK-637] | 0.269 nM | 12.0% | 23.8% | 20.5%

Further lines, with some results ahead:

Row | Kb [2] | SMILES | Increase in bladder capacity (%) ([1]; dose 0.3 mg/kg i.v.) | Increase in bladder capacity (%) ([1]; dose 1 mg/kg i.v.) | Increase in bladder capacity (%) ([1]; dose 3 mg/kg i.v.)
5 | 0.148 nM | CC(=O)N1CCN(c2nc3c(c(-c4ccccc4C)n2)C(=O)N(Cc2cc(C(F)(F)F)cc(C(F)(F)F)c2)CCCN3)CC1 [Compound of Example 4, 2-(4-acetylpiperazine-1-yl)-6-[3,5-bis(trifluoromethyl)benzyl]-5,6,7,8,9,10-hexahydro-4-(2-methylphenyl)-5-oxopyrimido[4,5-b][1,5]diazocine] | 43.0% |  | 
6 | 0.0794 nM | CC(=O)N1CCN(c2nc(-c3ccccc3C)c3c(n2)N(C(C)=O)CCCN(Cc2cc(C(F)(F)F)cc(C(F)(F)F)c2)C3=O)CC1 [Compound of Example 22, 10-acetyl-2-(4-acetylpiperazine-1-yl)-6-[3,5-bis(trifluoromethyl)benzyl]-5,6,7,8,9,10-hexahydro-4-(2-methylphenyl)-5-oxopyrimido[4,5-b][1,5]diazocine] |  |  | 
